Measured values published in PubChem BioAssay AID330 (DTP/NCI, 2004).
“And” between values parts separate entries of the source, which are not always exact repeats. Identical values can stand only once. Toxic doses and inconclusive results are not listed.

Test system: P388 leukemia ip, CD2F1 mice, survival T/C
Experiment: NCI In Vivo Anticancer Drug Screen. Data for tumor model P388 Leukemia (intraperitoneal) in CD2F1 (CDF1) mice
Settings: endpoint: median survival time, higher = longer survival
Procedure, shortened: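 Mice carrying the transplanted tumor received test compound or vehicle. Survival was recorded in each group, and the value is the treated-group measurement divided by that of the vehicle-treated control group.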

[1] = dose: 50.0 mg/kg/injection, schedule: Q01DX009 (ip), vehicle: saline with Tween-80
[2] = dose: 100.0 mg/kg/injection, schedule: Q01DX009 (ip), vehicle: saline with Tween-80
[3] = dose: 200.0 mg/kg/injection, schedule: Q01DX009 (ip), vehicle: saline with Tween-80
[4] = dose: 50.0 mg/kg/injection, schedule: Q01DX005 (ip), vehicle: saline with Tween-80
[5] = dose: 50.0 mg/kg/injection, schedule: Q01DX005 (ip), vehicle: Klucel (hydroxypropylcellulose) (HPC)
[6] = dose: 100.0 mg/kg/injection, schedule: Q01DX005 (ip), vehicle: Klucel (hydroxypropylcellulose) (HPC)

Which results are given for `CNP(=O)(OC)Oc1ccc(C(C)(C)C)cc1Cl` (centres undefined)?
T/C [1]: 112 % of control; T/C [2]: 106 % of control; T/C [3]: 115 % of control

How did the T/C (dose: 12.5 mg/kg/injection, schedule: Q01DX005 (ip), vehicle: saline with Tween-80) turn out when `CCCOc1cc2c(cc1C(C)c1ccc(OCC)cc1)OCO2` (centres undefined) was run?
The T/C was 100 % of control.

And the T/C (dose: 25.0 mg/kg/injection, schedule: Q01DX005 (ip), vehicle: saline with Tween-80)?
Its T/C is 110 % of control.

And the T/C [4]?
Its T/C is 115 % of control.

And the T/C (dose: 60.0 mg/kg/injection, schedule: Q01DX005 (ip), vehicle: saline with Tween-80)?
Its T/C is 105 % of control.

What about the T/C (dose: 120.0 mg/kg/injection, schedule: Q01DX005 (ip), vehicle: saline with Tween-80) of the same compound?
The T/C was 113 % of control.

For `CNCC1CCCO1` (centres undefined), which T/C (dose: 25.0 mg/kg/injection, schedule: Q04DX003 (ip), vehicle: saline) is on record?
The T/C was 100 % of control.

And the T/C (dose: 50.0 mg/kg/injection, schedule: Q04DX003 (ip), vehicle: saline)?
The T/C was 100 % of control.

What about the T/C (dose: 100.0 mg/kg/injection, schedule: Q04DX003 (ip), vehicle: saline) of the same compound?
The T/C was 100 % of control.

And the T/C (dose: 200.0 mg/kg/injection, schedule: Q04DX003 (ip), vehicle: saline)?
Its T/C is 99 % of control.

With `COc1ccc(OC(=O)Nc2ccc(Cl)c(C(F)(F)F)c2)c(Cl)c1` as the compound, how does the T/C (dose: 1.56 mg/kg/injection, schedule: Q01DX009 (ip), vehicle: saline) read?
Its T/C is 100 % of control.

And the T/C (dose: 3.12 mg/kg/injection, schedule: Q01DX009 (ip), vehicle: saline)?
The T/C was 94 % of control.

And the T/C (dose: 6.25 mg/kg/injection, schedule: Q01DX009 (ip), vehicle: saline)?
The T/C was 88 % of control and 95 % of control.

What about the T/C (dose: 12.5 mg/kg/injection, schedule: Q01DX009 (ip), vehicle: saline) of the same compound?
Its T/C is 96 % of control.

And the T/C (dose: 25.0 mg/kg/injection, schedule: Q01DX009 (ip), vehicle: saline)?
Its T/C is 93 % of control.

And the T/C (dose: 100.0 mg/kg/injection, schedule: Q01DX009 (ip), vehicle: saline + alcohol)?
The T/C was 101 % of control.

What about the T/C (dose: 200.0 mg/kg/injection, schedule: Q01DX009 (ip), vehicle: saline + alcohol) of the same compound?
Its T/C is 100 % of control.

For `COc1ccc2cc3cccc[n+]3cc2c1`, which T/C (dose: 0.19 mg/kg/injection, schedule: Q01DX005 (ip), vehicle: Klucel (hydroxypropylcellulose) (HPC)) is on record?
The T/C was 100 % of control.

And the T/C (dose: 0.39 mg/kg/injection, schedule: Q01DX005 (ip), vehicle: Klucel (hydroxypropylcellulose) (HPC))?
The T/C was 110 % of control.

And the T/C (dose: 0.78 mg/kg/injection, schedule: Q01DX005 (ip), vehicle: Klucel (hydroxypropylcellulose) (HPC))?
Its T/C is 108 % of control and 97 % of control.

For `CC[As](CC)SC(CC[C@@H](C)C1CC[C@@]2(C)C3=C(CC[C@]12C)[C@@]1(C)CC[C@H](O)C(C)(C)[C@@H]1CC3)C(C)C` (some centres undefined), which T/C [5] is on record?
The T/C was 87 % of control.

What about the T/C [6] of the same compound?
Its T/C is 92 % of control.

What about the T/C (dose: 200.0 mg/kg/injection, schedule: Q01DX005 (ip), vehicle: Klucel (hydroxypropylcellulose) (HPC)) of the same compound?
Its T/C is 95 % of control.

With `C[N+]1(C)CCN(Cc2ccc3c(c2)CCc2ccccc2N3)CC1` as the compound, how does the T/C (dose: 3.75 mg/kg/injection, schedule: Q01DX005 (ip), vehicle: saline) read?
The T/C was 104 % of control.

And the T/C (dose: 7.5 mg/kg/injection, schedule: Q01DX005 (ip), vehicle: saline)?
The T/C was 96 % of control.

Which results are given for `Cc1cc(=O)n(Nc2ccccc2)c(O)c1C#N`?
T/C (dose: 50.0 mg/kg/injection, schedule: Q01DX009 (ip), vehicle: Klucel (hydroxypropylcellulose) (HPC)): 100 % of control; T/C (dose: 100.0 mg/kg/injection, schedule: Q01DX009 (ip), vehicle: Klucel (hydroxypropylcellulose) (HPC)): 94 % of control; T/C (dose: 200.0 mg/kg/injection, schedule: Q01DX009 (ip), vehicle: Klucel (hydroxypropylcellulose) (HPC)): 100 % of control

How did the T/C (dose: 12.5 mg/kg/injection, schedule: Q01DX009 (ip), vehicle: saline with Tween-80) turn out when `O=C(O)c1ccccc1Nc1cccc(C(F)(F)F)c1` was run?
Its T/C is 103 % of control.

What about the T/C (dose: 25.0 mg/kg/injection, schedule: Q01DX009 (ip), vehicle: saline with Tween-80) of the same compound?
The T/C was 98 % of control.

What about the T/C [1] of the same compound?
The T/C was 97 % of control.

What about the T/C [2] of the same compound?
The T/C was 107 % of control.

`CCSC(=NC)Nc1ccc(Oc2ccc(Cl)cc2)cc1` was tested. Which T/C (dose: 12.5 mg/kg/injection, schedule: Q01DX005 (ip), vehicle: Klucel (hydroxypropylcellulose) (HPC)) did it give?
Its T/C is 101 % of control and 102 % of control.

What about the T/C (dose: 25.0 mg/kg/injection, schedule: Q01DX005 (ip), vehicle: Klucel (hydroxypropylcellulose) (HPC)) of the same compound?
Its T/C is 105 % of control and 106 % of control.

What about the T/C [5] of the same compound?
The T/C was 102 % of control and 109 % of control and 123 % of control.

What about the T/C [6] of the same compound?
Its T/C is 100 % of control and 106 % of control and 107 % of control.

Which T/C (dose: 50.0 mg/kg/injection, schedule: Q04DX003 (ip), vehicle: saline with Tween-80) does the source give for `CCNc1nc(Cl)nc(NC(C)C)n1` here?
The T/C was 91 % of control.

What about the T/C (dose: 100.0 mg/kg/injection, schedule: Q04DX003 (ip), vehicle: saline with Tween-80) of the same compound?
Its T/C is 87 % of control.

What about the T/C (dose: 200.0 mg/kg/injection, schedule: Q04DX003 (ip), vehicle: saline with Tween-80) of the same compound?
Its T/C is 91 % of control.

Which results are given for `CC1CCOBO1` (centres undefined)?
T/C (dose: 100.0 mg/kg/injection, schedule: Q04DX002 (ip), vehicle: Klucel (hydroxypropylcellulose) (HPC)): 98 % of control; T/C (dose: 200.0 mg/kg/injection, schedule: Q04DX002 (ip), vehicle: Klucel (hydroxypropylcellulose) (HPC)): 101 % of control; T/C (dose: 400.0 mg/kg/injection, schedule: Q04DX002 (ip), vehicle: Klucel (hydroxypropylcellulose) (HPC)): 98 % of control

Which results are given for `CC(CN(C)C)Oc1ccccc1NC1=C(Cl)C(=O)C(Nc2ccccc2OC(C)CN(C)C)=C(Cl)C1=O` (centres undefined)?
T/C (dose: 10.0 mg/kg/injection, schedule: Q01DX009 (ip), vehicle: saline): 108 % of control and 115 % of control; T/C (dose: 20.0 mg/kg/injection, schedule: Q01DX009 (ip), vehicle: saline): 115 % of control and 118 % of control

Which results are given for `CCC12C[N+]3([O-])CCc4c([nH]c5ccccc45)C(C(=O)OC)(c4cc5c(cc4OC)N(C)C4C(O)(C(=O)OC)C(OC(C)=O)C6(CC)C=CCN7CCC54C76)CC(C3)C1O2` (centres undefined)?
T/C (dose: 2.0 mg/kg/injection, schedule: Q01DX001 (ip), vehicle: water): 102 % of control; T/C (dose: 8.0 mg/kg/injection, schedule: Q01DX001 (ip), vehicle: distilled water + Tween-80): 161 % of control; T/C (dose: 8.0 mg/kg/injection, schedule: Q01DX001 (ip), vehicle: water): 122 % of control; T/C (dose: 16.0 mg/kg/injection, schedule: Q01DX001 (ip), vehicle: distilled water + Tween-80): 193 % of control; T/C (dose: 32.0 mg/kg/injection, schedule: Q01DX001 (ip), vehicle: water): 171 % of control; T/C (dose: 64.0 mg/kg/injection, schedule: Q01DX001 (ip), vehicle: water): 190 % of control

Which results are given for `Cc1c(C)c2c(c3c1OC(C)(C)CC3)CCC(C)(C)O2`?
T/C (dose: 50.0 mg/kg/injection, schedule: Q01DX009 (ip), vehicle: suspension in saline): 88 % of control; T/C (dose: 100.0 mg/kg/injection, schedule: Q01DX009 (ip), vehicle: suspension in saline): 101 % of control; T/C (dose: 200.0 mg/kg/injection, schedule: Q01DX009 (ip), vehicle: suspension in saline): 100 % of control

With `COc1cc2cnccc2cc1O` as the compound, how does the T/C (dose: 6.25 mg/kg/injection, schedule: Q01DX009 (ip), vehicle: water) read?
The T/C was 92 % of control.

And the T/C (dose: 12.5 mg/kg/injection, schedule: Q01DX009 (ip), vehicle: water)?
The T/C was 103 % of control.

And the T/C (dose: 25.0 mg/kg/injection, schedule: Q01DX009 (ip), vehicle: water)?
The T/C was 98 % of control.

And the T/C (dose: 50.0 mg/kg/injection, schedule: Q01DX009 (ip), vehicle: water)?
The T/C was 95 % of control.

What about the T/C (dose: 100.0 mg/kg/injection, schedule: Q01DX009 (ip), vehicle: water) of the same compound?
Its T/C is 110 % of control.

Which T/C [1] does the source give for `O=C(O)CN(CC(=O)O)Cc1cc2c(cc1O)Oc1cc(O)c(CN(CC(=O)O)CC(=O)O)cc1C21OC(=O)c2ccccc21` here?
The T/C was 105 % of control.

What about the T/C [2] of the same compound?
Its T/C is 101 % of control.

And the T/C [3]?
The T/C was 97 % of control.

Which results are given for `CCOC(=O)N(CCCl)C(=O)C(C)C`?
T/C (dose: 100.0 mg/kg/injection, schedule: Q01DX001 (ip), vehicle: saline with Tween-80): 104 % of control; T/C (dose: 200.0 mg/kg/injection, schedule: Q01DX001 (ip), vehicle: saline with Tween-80): 100 % of control; T/C (dose: 400.0 mg/kg/injection, schedule: Q01DX001 (ip), vehicle: saline with Tween-80): 104 % of control

What does the source list for `NC(=Nc1ccc(S(=O)(=O)Nc2cnc3ccccc3n2)cc1)/N=C(/N)Nc1ccc(Br)cc1`?
T/C [4]: 99 % of control; T/C (dose: 100.0 mg/kg/injection, schedule: Q01DX005 (ip), vehicle: saline with Tween-80): 100 % of control; T/C (dose: 200.0 mg/kg/injection, schedule: Q01DX005 (ip), vehicle: saline with Tween-80): 99 % of control
